Assay: Pharmacokinetic parameters following intravenous administration in rats
Type: in vivo
Settings: rat; for MRT / half-life: male, Wistar, plasma, iv
Method: The pharmacokinetic parameters of the substance are determined in male CD-1 mice, male Wistar rats and female beagles. The administration volume is 10 ml/kg for mice, 5 ml/kg for rats and 0.5 ml/kg for dogs. Intravenous administration is via a formulation of species-specific plasma/DMSO (99/1) in the case of mice and rats and via water/PEG400/ethanol (50/40/10) in the case of dogs. For easier removal of blood, a silicone catheter is inserted into the right Vena jugularis externa of the rats before the administration of substance. The surgical intervention takes place one day prior to the experiment with isofluran anaesthesia and administration of an analgetic (atropine/rimadyl (3/1) 0.1 ml s.c.). Substance administration is as i.v. bolus in the case of mice, as i.v. bolus or via a 15-minute infusion in the case of rats and via a 15-minute infusion in the case of dogs. Removal of blood is after 0.033, 0.083, 0.17, 0.5, 1, 2, 3, 4, 6, 7 and 24 hours in the case of mice and, after a 15-minute infusion, after 0.083, 0.25, 0.28 0.33, 0.42, 0.75, 1, 2, 3, 4, 6, 7 and 24 hours in the case of dogs and rats and after an i.v. bolus administration, after 0.033, 0.083, 0.17, 0.5, 1, 2, 3, 4, 6, 7 and 24 hours in the case of rats. For all species, oral administration of the dissolved substance via gavage is carried out based on a water/PEG400/ethanol formulation (50/40/10). Here, the removal of blood from rats and dogs is after 0.083, 0.17, 0.5, 0.75, 1, 2, 3, 4, 6, 7 and 24 hours. The blood is removed into heparinized tubes. The blood plasma is then obtained by centrifugation; if required, it can be stored at −20° C. until further processing.
An internal standard (ZK 228859) is added to the unknown samples, calibration samples and QCs, and the protein is precipitated using excess acetonitrile. After addition of an ammonium acetate buffer (0.01 M, pH 6.8 (Example 1/3) or pH 3.0 (Example 2)) and subsequent vortexing, the mixture is centrifuged at 1000 g and the supernatant is examined by LC-MS/MS (API 4000, AB Sciex). Chromatographic separation is carried out on an Agilent 1100-HPLC. The injection volume is 10 μl. The separation column used is a Phenomenex Luna 5μ C8(2) 100 A 50×2 mm, adjusted to a temperature of 40° C. For Example 1, a binary mobile phase gradient at 400 μl/min is used (A: 0.01M ammonium acetate buffer pH 6.8, B: 0.1% formic acid in acetonitrile): 0 min (90% A), 1 min (90% A), 3.5 min (15% A), 4.5 min (15% A), 4.6 min (90% A), 7 min (90% A). For Example 2, a binary mobile phase gradient at 500 μl/min is used instead (A: 0.01M ammonium acetate buffer pH 3.0, B: 0.1% formic acid in acetonitrile): 0 min (90% A), 1.5 min (90% A), 3.5 min (10% A), 4.5 min (10% A), 5 min (90% A), 7 min (90% A). For Example 3, a binary mobile solvent gradient at 500 μl/min is used instead (A: 0.01M ammonium acetate buffer pH 6.8, B: 0.1% formic acid in acetonitrile): 0 min (90% A), 1 min (90% A), 3 min (10% A), 4 min (10% A), 4.5 min (90% A), 6 min (90% A). The temperature of the Turbo V ion source is 500° C. The following MS instrument parameters are used: curtain gas 20 units (Example 1), 16 units (Example 2) or 15 units (Example 3), ion spray voltage 5 kV (Example 1/2) or 4.5 units (Example 3), gas 1 35 units (Example 1/3) or 25 units (Example 2), gas 2 30 units, CAD gas 4 units (Example 1/3) or 3 units (Example 2). The substances are quantified by peak heights or areas using extracted ion chromatograms of specific MRM experiments.
The plasma concentration/time plots determined are used to calculate the pharmacokinetic parameters such as AUC, Cmax, MRT (mean residence time), t1/2 (half life) and CL (clearance) employing the validated pharmacokinetic calculation programs KinEx (Vers. 2.5 and 3).
As the substance quantification is carried out in plasma, it is necessary to determine the blood/plasma distribution of the substance to be able to adjust the pharamacokinetic parameters in an appropriate manner. […]

[1] = 0.3 mg/kg i.v., 15-minute infusion
[2] = 0.3 mg/kg i.v. bolus administration

| SMILES | MRT [1] | half-life [1] | AUCnorm [1] | CLblood [1] | MRT [2] | half-life [2] | AUCnorm [2] | CLblood [2] |
| --- | --- | --- | --- | --- | --- | --- | --- | --- |
| COC(=O)Nc1c(N)nc(-c2nn(Cc3ccccc3F)c3ncc(F)cc23)nc1N [Example 1, Methyl {4,6-diamino-2-[5-fluoro-1-(2-fluorobenzyl)-1H-pyrazolo[3,4-b]pyridin-3-yl]pyrimidin-5-yl}carbamate] | 4.1 h | 3.4 h | 4.36 kg·h/L | 0.29 lh/kg | – | – | – | – |
| COC(=O)N(C)c1c(N)nc(-c2nn(Cc3ccccc3F)c3ncc(F)cc23)nc1N [Example 2] | – | – | – | – | 2.3 h | 1.7 h | 1.79 kg·h/L | 0.53 lh/kg |
| COC(=O)N(CC(F)(F)F)c1c(N)nc(-c2nn(Cc3ccccc3F)c3ncc(F)cc23)nc1N [Example 3, Methyl {4,6-diamino-2-[5-fluoro-1-(2-fluorobenzyl)-1H-pyrazolo[3,4-b]pyridin-3-yl]pyrimidin-5-yl}(2,2,2-trifluoroethyl)carbamate] | – | – | – | – | 2.3 h | 1.9 h | 1.36 kg·h/L | 1.02 lh/kg |
